Read-outs that look alike come from different tables or passages of the source.
Columns and labels:
Type in all cases: binding
[1] = molecular target: T1, CIB1 and αIIb interaction (GST-CIB1 : F-αIIb peptide) (Homo sapiens, UniProt Q99828); assay: FP assay, 384-well format (screen); set-up: 384-well SCREEN Efficacy (%): concentration or dose not given beside the values; conditions: F-αIIb peptide; for 384-well SCREEN Confirm?: YES/NO; for IC50: read-out: 384-well SCREEN IC50
T1 construct: made in house; host or cells: BL-21 plus RIL cells (E. coli)
T1 sequence (Q99828 1-191): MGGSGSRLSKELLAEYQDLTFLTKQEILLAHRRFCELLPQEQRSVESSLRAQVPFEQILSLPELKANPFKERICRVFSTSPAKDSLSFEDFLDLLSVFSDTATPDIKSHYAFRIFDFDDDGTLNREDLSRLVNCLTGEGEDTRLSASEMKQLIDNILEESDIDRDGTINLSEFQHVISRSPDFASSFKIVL

[2] = molecular target: T2, GST-CIB1 : F-scrambled peptide (Homo sapiens, UniProt Q99828); assay: FP scrambled-peptide counter screen, 384-well format; conditions: F-scrambled peptide; for IC50: read-out: 384-well COUNTERSCREEN IC50
T2 construct: made in house; host or cells: BL-21 plus RIL cells (E. coli)
T2 sequence (Q99828 1-191): T1 sequence (Q99828 1-191)

[3] = molecular target: T3, CIB1 and αIIb interaction (CIB1-GST : F-αIIb peptide) (Homo sapiens, UniProt Q99828); assay: FP assay, 1536-well qHTS format (primary and confirmatory screen); conditions: for CONFIRMATORY SCREEN Confirm?: YES/NO call; for CONFIRMATORY SCREEN Curve Class: qHTS curve class; for CONFIRMATORY SCREEN Curve Class / Curve Class: negative sign = inhibitory curve; for CONFIRMATORY SCREEN Efficacy (%) / Efficacy (%): negative = inhibition
T3 construct: made in house; host or cells: BL-21 plus RIL cells (E. coli)
T3 sequence (Q99828 1-191): T1 sequence (Q99828 1-191)

[4] = molecular target: T2, GST-CIB1 : F-scrambled peptide; assay: FP scrambled-peptide counter screen, 1536-well format; conditions: scrambled-peptide counterscreen; for COUNTERSCREEN Confirm?: YES/NO call; for COUNTERSCREEN Curve Class: qHTS curve class
[5] = confirmatory screen, read-out: CONFIRMATORY SCREEN IC50
[6] = qHTS FP screen hits, Table S2, one class per curve where COUNT > 1
[7] = qHTS FP screen hits, Table S2, read-out: IC50
[8] = qHTS primary screen hits, Table S2

SMILES	384-well SCREEN Efficacy (%) [1] [%]	384-well SCREEN Confirm? [1]	IC50 [1] [µM]	384-well COUNTERSCREEN Efficacy (%) [2] [%]	IC50 [2] [µM]	CONFIRMATORY SCREEN Confirm? ([3]; confirmatory screen)	CONFIRMATORY SCREEN Curve Class ([3]; confirmatory screen)	CONFIRMATORY SCREEN Efficacy (%) ([3]; confirmatory screen)	IC50 [3, 5] [µM]	Efficacy (%) ([3]; qHTS FP screen hits, Table S2)	Curve Class [3, 6]	IC50 [3, 7] [µM]	COUNTERSCREEN Efficacy (%) [4] [%]	COUNTERSCREEN Confirm? [4]	COUNTERSCREEN Curve Class [4]	IC50 ([4]; read-out: COUNTERSCREEN IC50) [µM]	Efficacy (%) [3, 8] [%]	Curve Class [3, 8]	384-well COUNTERSCREEN Confirm? ([2]; *: Curve in opposite direction)	IC50 ([3]; qHTS primary screen hits, Table S2, read-out: IC50) [µM]
Cc1cc(=O)oc2cc(SC3=NS(=O)(=O)c4ccccc43)ccc12 [NCGC00189497-01]	52	YES	44.7	34	10	YES	-1.4	-39	20	-45	-2.2	39.8	115	YES	3	39.8	–	–	–	–
O=C(O)C(F)(F)F.O=C(O)c1ccc(-c2ccc3ncnc(NCc4nccs4)c3c2)o1 [NCGC00229620-01]	40	YES	17.8	48	31.6	YES	-2.4	-55	44.7	-25	–	10	-21	YES	4	–	–	–	–	–
Cc1csc(CNc2ncnc3ccc(-c4ccc(CO)o4)cc23)n1.O=C(O)C(F)(F)F [NCGC00229623-01]	70	YES	35.5	39	25.1	YES	-3	-83	–	–	–	–	-25	YES	4	–	-60	-2.2	–	–
CC(O)c1ccc(-c2ccc3ncnc(NCc4nccs4)c3c2)o1.O=C(O)C(F)(F)F (stereo not shown) [NCGC00238382-01]	61	YES	14.1	36	17.7	YES	-3	-53	–	-63	-2.2	39.8	0	YES	4	–	–	–	YES	–
O=C(O)C(F)(F)F.OCc1ccc(-c2ccc3ncnc(NCc4nccs4)c3c2)o1 [NCGC00238383-01]	69	YES	25.1	47	39.8	YES	-3	-52	70.8	–	–	–	-16	YES	4	–	-70	-2.2	–	39.8

Reference: paper PMC11249646, “Small-Molecule Disruptors of the Interaction between Calcium- and Integrin-Binding Protein 1 and Integrin αIIbβ3 as Novel Antiplatelet Agents” (ACS Pharmacology & Translational Science, 2024)
